# Results as given in the supplement of paper PMC10307832.
# Experiments:
# Assay in all cases: relative viability (nuclei count vs DMSO), 5 days (fraction); higher = more cells survive
# Selisistat + Vorinostat = compound: C1CC(C2=C(C1)C3=C(N2)C=CC(=C3)Cl)C(=O)N [Selisistat] + O=C(CCCCCCC(=O)Nc1ccccc1)NO [Vorinostat] (partner 1 µM)
# Summary of the method: (§1)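 Relative viability equals treated-well nuclei counts divided by vehicle-well nuclei counts. Counts came from 4× images of lung cancer cell lines grown in 1536-well plates for 5 days after pin-tool dosing on the day after seeding. Dosing used one drug alone or a fixed anchor-drug dose plus five library-drug doses (not always all listed) in √10 steps, and values are medians of duplicate plates.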
# Serdemetan + Luminespib = compound: c1ccc2c(CCNc3ccc(Nc4ccncc4)cc3)c[nH]c2c1 [Serdemetan] + CCNC(=O)c1noc(-c2cc(C(C)C)c(O)cc2O)c1-c1ccc(CN2CCOCC2)cc1 [Luminespib] (partner 0.01 µM)
# Summary of the method: as §1
# Serdemetan + Tozasertib = compound: c1ccc2c(CCNc3ccc(Nc4ccncc4)cc3)c[nH]c2c1 [Serdemetan] + Cc1cc(Nc2cc(N3CCN(C)CC3)nc(Sc3ccc(NC(=O)C4CC4)cc3)n2)n[nH]1 [Tozasertib] (partner 0.1 µM)
# Summary of the method: as §1
# Serdemetan + Olaparib = compound: c1ccc2c(CCNc3ccc(Nc4ccncc4)cc3)c[nH]c2c1 [Serdemetan] + O=C(c1cc(Cc2n[nH]c(=O)c3ccccc23)ccc1F)N1CCN(C(=O)C2CC2)CC1 [Olaparib] (partner 8 µM)
# Summary of the method: as §1
Cell Line,relative viability (Selisistat + Vorinostat; first compound 0.4 µM),relative viability (Selisistat + Vorinostat; first compound 1.265 µM),relative viability (Selisistat + Vorinostat; first compound 4 µM),relative viability (Selisistat + Vorinostat; first compound 12.65 µM),relative viability (Selisistat + Vorinostat; first compound 40 µM),relative viability (Serdemetan + Luminespib; first compound 0.04 µM),relative viability (Serdemetan + Luminespib; first compound 0.1265 µM),relative viability (Serdemetan + Luminespib; first compound 0.4 µM),relative viability (Serdemetan + Luminespib; first compound 1.265 µM),relative viability (Serdemetan + Luminespib; first compound 4 µM),relative viability (Serdemetan + Tozasertib; first compound 0.04 µM),relative viability (Serdemetan + Tozasertib; first compound 0.1265 µM),relative viability (Serdemetan + Tozasertib; first compound 0.4 µM),relative viability (Serdemetan + Tozasertib; first compound 1.265 µM),relative viability (Serdemetan + Tozasertib; first compound 4 µM),relative viability (Serdemetan + Olaparib; first compound 0.04 µM),relative viability (Serdemetan + Olaparib; first compound 0.1265 µM),relative viability (Serdemetan + Olaparib; first compound 0.4 µM),relative viability (Serdemetan + Olaparib; first compound 1.265 µM),relative viability (Serdemetan + Olaparib; first compound 4 µM)
LC-2-ad,0.769,0.704,0.774,0.806,0.764,0.951,0.944,0.969,0.898,0.899,0.397,0.487,0.459,0.461,0.385,0.703,0.629,0.63,0.536,0.511
CAL-12T,0.66,0.727,1.05,0.766,0.768,0.227,0.28,0.141,0.266,0.486,0.272,0.318,0.246,0.309,0.327,0.777,0.713,0.576,0.742,0.67
RERF-LC-KJ,0.665,0.759,0.731,0.763,0.708,1.43,1.16,1.17,1.1,1.12,0.49,0.441,0.479,0.455,0.469,1.03,0.872,0.889,0.747,0.835
NCI-H1650,0.578,0.533,0.704,0.726,0.67,0.212,0.213,0.205,0.177,0.184,0.415,0.483,0.405,0.389,0.351,0.692,0.781,0.802,0.671,0.419
BEN,0.625,0.663,0.545,0.636,0.657,0.24,0.2,0.461,–,0.329,0.451,0.477,0.531,0.478,0.469,0.975,0.98,1.15,0.81,0.594
EMC-BAC-2,0.487,0.515,0.0984,0.12,0.12,1.14,1.12,1.13,0.616,0.636,0.246,0.298,0.248,0.22,0.217,0.447,0.446,0.473,0.338,0.403
LU99A,0.514,0.5,0.6,0.51,0.558,0.26,0.259,0.185,0.182,0.193,0.321,0.297,0.265,0.183,0.185,0.245,0.185,0.17,0.124,0.136
ABC-1,1.38,1.28,–,1.09,1.19,0.581,0.648,0.515,0.567,0.516,0.132,0.171,0.182,0.177,0.162,0.627,0.689,0.982,0.702,0.573
NCI-H2170,0.868,0.8,0.845,0.917,0.964,0.643,0.596,0.807,0.459,0.56,0.662,0.732,0.7,0.276,0.685,0.641,0.571,0.544,0.469,0.352
NCI-H1299,–,–,–,–,–,–,–,–,–,–,–,–,–,–,–,0.953,0.91,0.869,0.787,0.57
EBC-1,–,–,–,–,–,–,–,–,–,–,–,–,–,–,–,0.694,0.669,0.703,0.594,0.547
NCI-H2347,0.478,0.484,–,0.666,0.772,1.08,0.56,0.215,0.264,0.292,0.623,0.602,0.572,0.588,0.399,0.568,0.535,0.59,0.424,0.439
NCI-H1792,–,–,–,–,–,0.471,0.407,0.422,0.415,0.298,–,–,–,–,–,0.405,0.336,0.231,0.0956,0.116
A549,–,–,–,–,–,–,–,–,–,–,–,–,–,–,–,0.208,0.382,0.269,0.141,0.147
NCI-H1563,–,–,–,–,–,0.499,0.481,0.555,0.458,0.436,–,–,–,–,–,–,–,–,–,–
HCC-78,0.495,0.467,0.437,0.428,0.6,–,–,–,–,–,0.414,0.354,0.363,0.329,0.303,0.847,0.731,0.749,0.79,0.592
IA-LM,1.09,–,–,0.926,1.22,–,–,–,–,–,–,–,–,–,–,0.883,0.886,0.839,0.392,0.396
NCI-H1703,–,–,–,–,–,–,–,–,–,–,–,–,–,–,–,0.427,0.397,0.415,0.386,0.333
NCI-H1648,0.289,0.446,–,0.596,0.39,–,–,–,–,–,–,0.46,0.38,0.206,0.299,–,0.744,0.633,0.399,0.425
